Legend:
[1] = test system: pseudovirus of the SARS-COV-2 prototype
[2] = during purification process of solid-phase synthesis

Molecule | EC50 [1] [nM] | stability [2]
CC[C@H](C)[C@H](NC(=O)CNC(=O)[C@H](CO)NC(=O)[C@@H](NC(=O)[C@H](CC(=O)O)NC(=O)CNC(=O)[C@H](Cc1ccccc1)NC(=O)[C@H](CCCCN)NC(=O)[C@@H](N)C(C)C)[C@@H](C)CC)C(=O)N[C@@H](CC(N)=O)C(=O)N[C@@H](C)C(=O)N[C@@H](CO)C(=O)N[C@H](C(=O)N[C@H](C(=O)N[C@@H](CC(N)=O)C(=O)N[C@H](C(=O)N[C@@H](CCCCN)C(=O)N[C@@H](CCC(=O)O)C(=O)N[C@@H](CCC(=O)O)C(=O)N[C@H](C(=O)N[C@@H](CC(=O)O)C(=O)N[C@@H](CCCNC(=N)N)C(=O)N[C@@H](CC(C)C)C(=O)N[C@@H](Cc1ccc(O)cc1)C(=O)N[C@@H](CCC(=O)O)C(=O)N[C@H](C(=O)N[C@H](C(=O)N[C@@H](CCCCN)C(=O)N[C@@H](CC(N)=O)C(=O)N[C@@H](CC(C)C)C(=O)N[C@@H](CC(N)=O)C(=O)N[C@@H](CCC(=O)O)C(=O)N[C@@H](CO)C(=O)N[C@@H](CC(C)C)C(=O)N[C@H](C(=O)N[C@@H](CC(=O)O)C(=O)N[C@@H](CC(C)C)C(=O)N[C@@H](CCC(N)=O)C(=O)N[C@@H](CCC(=O)O)C(=O)N[C@@H](CC(C)C)C(=O)O)[C@@H](C)CC)C(C)C)C(C)C)[C@@H](C)CC)[C@@H](C)CC)C(C)C)C(C)C [P3-3] | 501 | 
DLGDISGINASVVNIQKEIDRLNEVAKNLNESLIDLQELGSGSGC(CH2CONH(PEG)4CH2COOChol)-NH2 [P3-2-GS-PEG-Chol-1] |  | poor stability
DLGDISGINASVVNIQKEIDRLNEVAKNLNESLIDLQELGSGSGC(CH2COOChol)-NH2 [P3-2-GS-Chol-1] |  | poor stability

Reference: patent US20240398893A1, “ANTI-CORONAVIRUS POLYPEPTIDE AS WELL AS DERIVATIVE AND APPLICATION THEREOF” (priority 2021, published 2024)
